{
  "source": "paper PMC7815808",
  "about": "“Enzyme and lateral flow monoclonal antibody-based immunoassays to simultaneously determine spirotetramat and spirotetramat-enol in foodstuffs” (Scientific Reports, 2021)",
  "key": {"mammals": {"tested_on": "mammals", "set-up": "method as in earlier work", "conditions": "cited from earlier work"}, "[1]": {"set-up": "method as in PMID 23436572", "conditions": "cited from earlier work"}, "[2]": {"experiment": "Spirotetramat hydrolysis study by HPLC‒MS/MS", "assay_type": "physicochemical", "set-up": "content found by HPLC–MS/MS, sample treatment A / content found by HPLC–MS/MS, sample treatment B / content found by HPLC–MS/MS, sample treatment C / content found by HPLC–MS/MS, sample treatment D: unit not given beside the values", "method": "(§1) In order to simultaneously quantify SP and SP-enol contents in a sample, an in situ procedure for treating the sample with alkaline solution in order to hydrolyse SP into SP-enol was assessed. SP and SP-enol standard solutions were prepared in MilliQ water and diluted fivefold with 40 mM NaOH. The mixtures were incubated 10 min at room temperature and diluted twofold with dilution buffer (200 mM Tris·HCl buffer, pH 8.0, containing 280 mM NaCl). For the competitive step, enzyme tracer solutions were prepared in TBS-T (100 mM Tris·HCl buffer, pH 8.0, containing 140 mM NaCl and 0.05% (v/v) Tween-20). As shown in the inset of Table 2, the obtained standard curves of SP-enol and hydrolysed SP were almost identical. This hydrolysis procedure was validated by HPLC‒MS/MS. SP and SP-enol aqueous solutions (50 µg/mL) were treated with NaOH and, 10 min later, the pH was lowered as previously described. Then, 10 µL of hydrolysed and diluted sample was transferred into 990 µL of acetonitrile and dried with anhydrous MgSO4. Controls without the hydrolysis step were also evaluated. Finally, the contents of SP, SP-enol, SP-keto, and SP-mono in the organic extracts were quantified (Table 2). […] Those samples were also analysed with the studied direct cELISA by running SP-enol standard solutions that had been incubated in NaOH and diluted with dilution buffer like the samples. […] Consequently, the developed hydrolysis procedure seemed to perform adequately for SP and SP-enol residue quantification as SP-enol equivalents.\nSP, SP-enol, SP-keto, and SP-mono standard solutions were prepared by serial dilution in acetonitrile from 1 to 2500 μg/L in amber glass vials and kept at − 20 °C. The injection volume was 5 µL and the column temperature was 45 °C. The analysis was carried out using a C18 reverse phase column with a gradient of 0.2% (v/v) formic acid in water (A) and acetonitrile (B) as mobile phase at a flow rate of 0.3 mL/min. The elution profile was 0‒3 min, from 5% B to 95% B, 3.0‒3.5 min, 95% B, 3.5‒3.6 min, from 95% B to 5% B, and 3.6‒8 min, 5% B. Spectra were acquired in positive ionization multiple reaction monitoring mode with interchannel delay of 0.02 s."}, "mAb SPm#23 [3]": {"tested_on": "mAb SPm#23", "experiment": "Optimized direct cELISA (mAb SPm#23 with tracer HRP–SPh), SP-enol standard curve", "assay_type": "binding, mouse", "conditions": "direct cELISA, heterologous bioconjugate", "method": "as §1\nThe sigmoidal inhibition curve obtained for SP-enol and the final assay conditions of the developed direct cELISA are provided in Table 3. […] The Amax value of the standard curve was near 1.0, the slope was − 1.4, and the background signal was negligible.\n(§2) Microplates were precoated with GAM in order to immobilise the mAb. The competitive step was carried out by mixing the analyte solution or diluted sample with the enzyme tracer solution. Standard curves were built in borosilicate glass tubes from 0.03 to 30 nM by a threefold serial dilution of the most concentrated standard solution, and a blank (no analyte) was also run. Concentrated stock solutions of the analytes in anhydrous DMF were used to prepare the most concentrated standard solution—the DMF concentration was always lower than 0.1% (v/v). The complete immunoassay procedure can be found in the Supplementary Information file.\nThe absorbance of each microplate well was immediately read at 492 nm using a reference wavelength at 650 nm, and values were processed with KCJunior software from BioTek Instruments. The SigmaPlot Version 14.0 was used to fit the experimental values to a standard four-parameter logistic curve. Immunoassay sensitivity was estimated as the concentration of analyte affording a 50% decrease (IC50) of the maximum absorbance (Amax) obtained in the absence of analyte. The LOD of the assay was defined as the IC10 of the sigmoidal inhibition curve. The LOQ was experimentally determined as the lowest analyte concentration that provided accurate and precise results using fortified food samples. […]\n(§3) 7. Direct competitive ELISA procedure\n(§4) The same protocol previously described for this format was applied.7 Briefly, plates were coated with 100 µL per well of 1 µg/mL GAM solution in carbonate‒bicarbonate buffer, pH 9.6, by overnight incubation at 4 °C. Wells were washed four times with washing solution (150 mM NaCl with 0.05% (v/v) Tween-20) after each incubation step. […]"}, "mAbs to SP and SP-enol": {"target": "mAbs to SP and SP-enol", "experiment": "Direct cELISA, binding of analytes and other pesticides by the generated mAbs", "set-up": "species or system mouse", "conditions": "homologous tracer, all mAbs; read-out: IC50 values with the homologous tracer", "excerpt": "Six mouse mAbs were obtained; three were from immunogen BSA‒SPm—named SPm#23, SPm#25, and SPm#216—and three from conjugate BSA‒SPo—named SPo#227, SPo#237, and SPo#243. These antibodies contained κ light chains and were of the IgG1 isotype, except mAb SPm#25 which was IgG2a. The affinity to SP and SP-enol was studied by checkerboard cELISA in the capture antibody-coated direct format, using homologous and heterologous enzyme tracers (with the same or different hapten, respectively, than the immunizing conjugate). SP and SP-enol standards were prepared in PBS (10 mM phosphate buffer, pH 7.4, with 140 mM NaCl) and tracer solutions for the competitive step were prepared in PBS-T (PBS containing 0.05% (v/v) Tween-20). […] Tracers with linker site heterologies were not bound by the antibodies. The only exception was mAb SPm#23 which did recognize the heterologous HRP‒SPh conjugate. For this antibody, the spacer arm of hapten SPh was located at a more proximal site than that of hapten […]. The lowest IC50 value with the homologous tracer was around 3 nM for SP-enol whereas binding to SP was moderate (IC50 values were higher than 30 nM).\n(§5) Concerning specificity, the two assayed immunogens (BSA‒SPm and BSA‒SPo) afforded equivalent results. […] Cross-reactivity with the main SP metabolites was studied with antibody SPm#23.\nas §2\n(§6) Table S1. Specificity of the\nas §3\nas §4, with “step. Then, 100 µL per well of specific mAb solution in PBS-T was added and plates were incubated at room temperature during 1 h. The competitive reaction was carried out by adding 50 µL per well of analyte solution or diluted sample and 50 µL per well of tracer” for “step.”\n(§7) enzyme substrate solution (2 mg/mL o-phenylendiamine and 0.012% (v/v) H2O2 in 25 mM sodium citrate and 62 mM sodium phosphate buffer, pH 5.4). Ten minutes later, the enzyme reaction was stopped by adding 100 µL per well of 1 M H2SO4.\n8. Influence of pH and ionic strength […]\n(§8) 7 E. Ceballos-Alcantarilla, D. López-Puertollano, C. Agulló, A. Abad-Fuentes, A. Abad-Somovilla, J. V. Mercader.\nCombined heterologies for monoclonal antibody-based immunoanalysis of fluxapyroxad. Analyst 143, 5718‒"}, "[4]": {"experiment": "Spirotetramat hydrolysis study by direct cELISA", "assay_type": "physicochemical", "method": "as §1"}, "mAb SPm#23 [5]": {"tested_on": "mAb SPm#23", "experiment": "Antibody specificity (cross-reactivity) of the selected mAb", "assay_type": "binding, mouse", "conditions": "cross-reactivity of the selected mAb, SP-enol = 100; n=3", "method": "as §5, §2, §6, §3\nas §4, with “step. Then, 100 µL per well of specific mAb solution in PBS-T was added and plates were incubated at room temperature during 1 h. The competitive reaction was carried out by adding 50 µL per well of analyte solution or diluted sample and 50 µL per well of tracer” for “step.”\nas §7\n8. Influence of pH and ionic strength\nFigure S5. Influence of pH and ionic strength over the Amax and IC50 values of the spirotetramat-enol standard curve of the studied direct cELISA.\nas §8\nCombined heterologies for monoclonal antibody-based immunoanalysis of fluxapyroxad. Analyst 143, 5718‒ […]"}},
  "data": [
    {"smiles": "CCOC(=O)OC1=C(c2cc(C)ccc2C)C(=O)N[C@]12CC[C@@H](OC)CC2", "note": "[SP, ethyl cis-8-methoxy-2-oxo-3-(2,5-xylyl)-1-azaspiro[4.5]dec-3-en-4-yl carbonate]", "values": [
      {"measurement": "eye irritation", "setting": "mammals", "value": "can be an eye irritant"},
      {"measurement": "skin-sensitization", "setting": "mammals", "value": "may cause skin-sensitization"},
      {"measurement": "toxicity in mammals", "setting": "mammals", "value": "does not show severe toxicity"},
      {"measurement": "hydrolysis at basic pH values", "setting": "[1]", "value": "quickly hydrolyses to form SP-enol"},
      {"measurement": "fate on incubation in basic solution", "setting": "[2]; 40 mM NaOH, 10 min, room temperature, HPLC‒MS/MS", "value": "completely hydrolysed into SP-enol"},
      {"measurement": "content found by HPLC–MS/MS, sample treatment A", "setting": "[2]; A, SP hydrolysed (40 mM NaOH, 10 min, room temperature)", "value": 0.03},
      {"measurement": "Recovery (%), sample treatment A", "setting": "[2]; A, SP hydrolysed, HPLC–MS/MS", "value": 93.4, "unit": "%"},
      {"measurement": "content found by HPLC–MS/MS, sample treatment B", "setting": "[2]; B, SP without hydrolysis", "value": 109.4},
      {"measurement": "Recovery (%), sample treatment B", "setting": "[2]; B, SP without hydrolysis, HPLC–MS/MS", "value": 88.8, "unit": "%"},
      {"measurement": "content found by HPLC–MS/MS, sample treatment C", "setting": "[2]; C, SP-enol hydrolysed (40 mM NaOH, 10 min, room temperature)", "value": 0.02},
      {"measurement": "content found by HPLC–MS/MS, sample treatment D", "setting": "[2]; D, SP-enol without hydrolysis", "value": 0.00},
      {"measurement": "IC50 value for the sum of spirotetramat and spirotetramat-enol", "setting": "mAb SPm#23 [3]", "value": 0.1, "unit": "µg/L"},
      {"measurement": "IC50", "setting": "mAbs to SP and SP-enol", "value": "> 30", "unit": "nM"},
      {"measurement": "recovery measured as SP-enol by direct cELISA", "setting": "[4]; incubated in NaOH solution (samples A and C)", "value": 85.0, "unit": "%"},
      {"measurement": "recovery measured as SP-enol by direct cELISA", "setting": "[4]; non-hydrolysed control solution (samples B and D)", "value": "could not be quantified"},
      {"measurement": "CR (%)", "setting": "mAb SPm#23 [5]", "value": 11.8, "unit": "%"}
    ]}
  ]
}
